Test results from patent US20130143886A1, “METHODS FOR PRESERVING AND/OR INCREASING RENAL FUNCTION USING XANTHINE OXIDOREDUCTASE INHIBITORS” (priority 2006, published 2013).
Values joined by “and” are separate entries in the source; they are usually repeats but may differ in a detail not shown here. Equal values may be shown once. “Also recorded” adds a separate entry of the source.

What was measured:
[1] = test system: human subjects with a history of nephrolithiasis; experiment: Renal function measures and serum urate in 4-week double-blind phase 2 study and open-label long-term febuxostat study; assay type: in vivo; conditions: for Measured Creatinine Clearance / Serum Creatinine / Urine Uric Acid / Estimated GFR / Serum Urate: individual subjects
Procedure: (1) febuxostat 40 mg per day, (2) febuxostat 80 mg per day, (3) febuxostat 120 mg per day, or (4) placebo. Subjects completing the double-blind study entered an open-label, long-term study and began treatment with 80 mg febuxostat per day. Febuxostat doses could be titrated over the initial 6 months to 40 mg or 120 mg febuxostat per day based on the subjects' serum urate levels and the occurrence of adverse events. In the study subset, a post-hoc analysis of nephrolithiasis outcome in the study subjects (n=13) who had received febuxostat for ≧30 months. In the event of an occurrence of renal calculus formation, all such stones were analyzed for mineral content. The following were the criteria for inclusion in the study: (1) a history or presence of gout as defined by the American Rheumatism Association Preliminary criteria; […] (3) serum urate level of ≧8.0 mg/dL at the start of the double-blind study. The following were the criteria for exclusion from the study: […]

remnant kidney (RK) rats [2] = experiment: Renal arteriolar morphology; assay type: in vivo, Male Wistar rats
Procedure: Male Wistar rats (295-340 g) were used to produce rats with remnant kidney (RK) as follows. […] Rats were then assigned to one of four treatment groups: Group 1, RK control rats (n=7); Group 2, RK+febuxostat (Fx) rats (n=8); Group 3, RK+oxonic acid (OA) rats (n=6); and Group 4, RK+OA+Fx (n=10). Oxonic acid (OA) (Sigma-Aldrich, St Louis Mo., USA), administered at 750 mg/kg body weight daily by oral gavage, was given starting the day after the 5⁄6 nephrectomy. Beginning immediately following the surgery, febuxostat was administered in drinking water at 30 mg/L (3-4 mg/kg/day), whereas the respective controls received only drinking water (with 3.5 mg/L of NaCl added to keep an equivalent salt concentration to the Fx-containing water). After the micropuncture study, kidneys were washed by perfusion with phosphate-buffered saline and then fixed with 4% paraformaldehyde. Renal biopsies were embedded in paraffin. Sections of 4-μm thick fixed tissue were stained with periodic acid Schiff (PAS) reagent and Masson's trichrome staining. Arteriolar morphology was assessed by indirect peroxidase immunostaining for alpha-smooth muscle actin (DAKO Corp, Carpinteria, Calif., USA). Renal sections incubated with normal rabbit serum were used as negative controls for immunostaining against alpha smooth-muscle actin. For each arteriole, the outline of the vessel and its internal lumen (excluding the endothelium) were generated using computer analysis to calculate the total medial area (outline inline), in 10 arterioles per biopsy. The media/lumen ratio was calculated by the outline/inline relationship (See, Sanchez-Lozada L G et al., “Mild hyperuricemia induces glomerular hypertension in normal rats”, Am J Physiol Renal Physiol 283:[…]-[…] (2002); Sanchez-Lozada L G, et al., “Mild hyperuricemia induces vasoconstriction and maintains glomerular hypertension in normal and remnant kidney rats,” Kidney Int 67:237-247 (2005), the contents of each are herein incorporated by reference). Quantifications were performed blinded.

remnant kidney (RK) rats [3] = experiment: Tubulointerstitial fibrosis quantification; assay type: in vivo, Male Wistar rats; conditions: febuxostat in both RK and RK+OA rats
Procedure: Male Wistar rats (295-340 g) were used to produce rats with remnant kidney (RK) as follows. […] Rats were then assigned to one of four treatment groups: Group 1, RK control rats (n=7); Group 2, RK+febuxostat (Fx) rats (n=8); Group 3, RK+oxonic acid (OA) rats (n=6); and Group 4, RK+OA+Fx (n=10). Oxonic acid (OA) (Sigma-Aldrich, St Louis Mo., USA), administered at 750 mg/kg body weight daily by oral gavage, was given starting the day after the ⅚ nephrectomy. […] Arteriolar morphology was assessed by indirect peroxidase immunostaining for alpha-smooth muscle actin (DAKO Corp, Carpinteria, Calif., USA). […] The degree of tubulointerstitial fibrosis was quantified in 10 non-crossed fields of cortex (100×) per biopsy. Slides were analyzed by light microscopy (Olympus BX51; Olympus American, Melville, N.Y., USA) and captured by a digital video camera (CoolSnap Pro; Media Cybernetics, Silver Spring, Md., USA). Pictures were processed on a computer and analyzed using Image Pro-Plus (version 5.0; Media Cybernetics, Silver Spring, Md., USA). Taking advantage of the capabilities of color recognition with this software, positive blue-stained areas (fibrosis) were selected and quantified in pixel units; glomeruli and vessels were previously excluded from the field. For each biopsy, the mean amount of positive blue-stained area was calculated by averaging the values from ten examined fields.

[4] = test system: hyperuricemic gout patients; experiment: FOCUS long-term open-label study: safety
[5] = double-blind Wk 4, DB dose 40 mg/day
[6] = double-blind Wk 4, DB dose 80 mg/day
[7] = double-blind Wk 4, DB dose 120 mg/day
[8] = open-label Yr 1, OL dose 80 mg/day
[9] = open-label Yr 1, OL dose 120 mg/day
[10] = open-label Yr 2, OL dose 80 mg/day
[11] = open-label Yr 2, OL dose 120 mg/day
[12] = open-label Yr 3, OL dose 80 mg/day
[13] = open-label Yr 3, OL dose 120 mg/day
[14] = adverse events, N = 116, PY = 385.6
[15] = serious adverse events, N = 116, PY = 385.6

## Cc1nc(-c2ccc(OCC(C)C)c(C#N)c2)sc1C(=O)O [febuxostat, 2-[3-cyano-4-(2-methylpropoxy)phenyl]-4-methylthiazole-5-carboxylic acid]
[1]; [5]
  Measured Creatinine Clearance: 82 mL/min and 56 mL/min
  Serum Creatinine: 1.2 mg/dL and 1.3 mg/dL
  Urine Uric Acid: 504 mg/day and 202 mg/day
[1]; [6]
  Measured Creatinine Clearance: 103 mL/min and 147 mL/min and 93 mL/min and 88 mL/min and 63 mL/min and 64 mL/min and 94 mL/min
  Serum Creatinine: 1.1 mg/dL (3×) and 1.2 mg/dL (3×) and 1.5 mg/dL
  Urine Uric Acid: 387 mg/day and 504 mg/day and 319 mg/day and 286 mg/day and 235 mg/day and 185 mg/day and 403 mg/day
[1]; [7]
  Measured Creatinine Clearance: 38 mL/min
  Serum Creatinine: 1.4 mg/dL
  Urine Uric Acid: 17 mg/day
[1]; [8]
  Estimated GFR: 80 mL/min and 73 mL/min (2×) and 67 mL/min and 68 mL/min (2×) and 57 mL/min and 61 mL/min and 54 mL/min and 33 mL/min and 49 mL/min
  Serum Creatinine: 1.1 mg/dL (2×) and 1.2 mg/dL (4×) and 1.4 mg/dL (2×) and 1.3 mg/dL and 1.6 mg/dL and 1.5 mg/dL
  Serum Urate: 4.3 mg/dL and 5.9 mg/dL and 4.4 mg/dL (2×) and 6.1 mg/dL and 4.5 mg/dL and 6.4 mg/dL and 4.1 mg/dL and 3.6 mg/dL and 7.4 mg/dL and 4.6 mg/dL
[1]; [9]
  Estimated GFR: 63 mL/min and 84 mL/min
  Serum Creatinine: 1.2 mg/dL and 1.0 mg/dL
  Serum Urate: 3.1 mg/dL and 4.6 mg/dL
[1]; [10]
  Estimated GFR: 72 mL/min and 80 mL/min and 74 mL/min and 61 mL/min and 62 mL/min and 56 mL/min and 59 mL/min and 39 mL/min and 49 mL/min and 73 mL/min and 75 mL/min
  Serum Creatinine: 1.2 mg/dL and 1.1 mg/dL (4×) and 1.3 mg/dL (3×) and 1.4 mg/dL (2×) and 1.5 mg/dL
  Serum Urate: 4.1 mg/dL and 4.2 mg/dL and 4.8 mg/dL and 7.6 mg/dL and 6.4 mg/dL and 9.7 mg/dL and 5.4 mg/dL and 4.7 mg/dL and 6.0 mg/dL and 4.4 mg/dL and 5.7 mg/dL
[1]; [11]
  Estimated GFR: 58 mL/min and 75 mL/min
  Serum Creatinine: 1.3 mg/dL and 1.1 mg/dL
  Serum Urate: 3.0 mg/dL and 4.2 mg/dL
[1]; [12]
  Estimated GFR: 72 mL/min (2×) and 66 mL/min and 61 mL/min and 57 mL/min and 51 mL/min and 54 mL/min and 39 mL/min and 40 mL/min and 65 mL/min and 67 mL/min
  Serum Creatinine: 1.2 mg/dL (5×) and 1.3 mg/dL and 1.4 mg/dL (3×) and 1.5 mg/dL and 1.8 mg/dL
  Serum Urate: 5.8 mg/dL (2×) and 3.2 mg/dL and 3.9 mg/dL and 3.3 mg/dL and 7.5 mg/dL and 4.6 mg/dL and 3.8 mg/dL (2×) and 6.8 mg/dL and 5.2 mg/dL
[1]; [13]
  Estimated GFR: 57 mL/min and 52 mL/min
  Serum Creatinine: 1.3 mg/dL and 1.5 mg/dL
  Serum Urate: 3.3 mg/dL and 3.8 mg/dL
[1]; subjects receiving febuxostat
  Renal function throughout the study: maintained at generally stable levels
Remnant kidney (RK) rats [2]; RK rats vs RK control group
  Thickening of preglomerular vessels / afferent arteriole (in words): prevented the thickening of preglomerular vessels
Remnant kidney (RK) rats [2]; RK+OA rats treated with febuxostat
  Additional thickening of the afferent arteriole (in words): prevented
Remnant kidney (RK) rats [2]; febuxostat-treated rats vs respective untreated cohorts
  Media/lumen (M/L) ratio (in words): no statistically significant differences; also recorded: tendency for the M/L ratio to be lower
Remnant kidney (RK) rats [3]
  Tubulointerstitial (TI) fibrosis (in words): significantly decreased
[4]; 21/116 subjects
  Subjects reporting serious adverse events (SAEs): 18%
[4]; [14]
  Athralgia, rate: 13.0 per 100 PY
  Diarrhea, rate: 7.8 per 100 PY
  Headaches, rate: 20.5 per 100 PY
  Influenza viral infections, rate: 7.3 per 100 PY
  Limb injuries, rate: 5.4 per 100 PY
  Liver function analyses, rate: 6.3 per 100 PY
  Lower respiratory tract infections, rate: 8.8 per 100 PY
  Musculoskeletal pain, rate: 23.6 per 100 PY
  Paresthesias and dysesthesias, rate: 6.2 per 100 PY
  Upper respiratory tract infections, rate: 37.8 per 100 PY
[4]; in vivo
  Deaths during the study: No subjects died
[4]; [15]
  Cardiac disorders, rate: 1.6 per 100 PY
  Gastrointestinal disorders, rate: 0.8 per 100 PY
  General disorders and administration site conditions, rate: 0.3 per 100 PY
  Hepatobiliary disorders, rate: 0.5 per 100 PY
  Infections and infestations, rate: 1.3 per 100 PY
  Injury, poisoning and procedural complications, rate: 1.0 per 100 PY
  Musculoskeletal and connective tissue disorders, rate: 1.6 per 100 PY
  Neoplasms - bening, malignant and unspecified, rate: 1.0 per 100 PY
  Nervous system disorders, rate: 0.5 per 100 PY
  Psychiatric disorders, rate: 0.3 per 100 PY
  Renal and urinary disorders, rate: 0.3 per 100 PY
[4]; subjects of 116 (Ninety-one percent)
  Subjects reporting at least one AE during the study: 106/116
[4]; throughout the range of renal function encountered
  Reported rates of adverse events across renal function (in words): no quantitative difference
